Measured values reported in patent publication US4224448A, “2'-(5'-Nitrofuryl) substituted quinolines” (priority 1966, dated 1980).
In brackets after ≈: the same amount, converted by molar mass. Where two headings read alike, the source gives them in different places.

Key:
Assay in all cases: Minimum inhibitory concentration, conventional tube dilution method
Type in all cases: cell-based
Candida albicans = conditions: fungus, tube dilution, 37 degrees, 24 hours, between 1 and 6 strains, mg/100 cc, decimal comma, read-out: Minimal Inhibitory Concentration, Cand. Alb.
Source text: (§1) The activity of some of the new nitrofuryl quinoline derivatives of the present invention is exemplified in Table 1 against a gram-positive (Staph. aureus), a gram-negative (Salmonella) bacterium and a fungus (Candida albicans). Table 1 indicates the minimum inhibitory concentration of the compound under reference in mg/100 cc required in order to inhibit the growth between 1 and 6 strains of each type. The measurements have been carried out by the conventional tube dilution method at 37 degrees after 24 hours.

Salmonella = conditions: read-out: Minimal Inhibitory Concentration, Salm.
Source text: as §1

Staph. aureus = conditions: Staphylococcus aureus; gram-positive; tube dilution, 37 degrees, 24 hours; between 1 and 6 strains; mg/100 cc; decimal comma; read-out: Minimal Inhibitory Concentration, Staph. aureus
Source text: as §1

[1] = gram-negative, tube dilution, 37 degrees, 24 hours, between 1 and 6 strains, mg/100 cc, decimal comma

SMILES | MIC (Candida albicans) | MIC (Salmonella; [1]) | MIC (Staph. aureus) | MIC (Salmonella; 24 h)
O=C(O)c1cc(-c2ccc([N+](=O)[O-])o2)c2ccccc2n1 [COOH H NF H H H H, 2-carboxy-4-[2'-(5'-nitrofuryl)]quinoline] | 30 to 50 µg/mL (≈ 106 to 176 µM) | > 10 µg/mL | 1 µg/mL (≈ 3.52 µM) | –
CCOc1ccc2c(-c3ccc([N+](=O)[O-])o3)cc(C(=O)O)nc2c1 [COOH H NF H H OC2 H5 H, 2-carboxy-4-[2'-(5'-nitrofuryl)]-7-ethoxy quinoline] | > 50 µg/mL | 5 µg/mL (≈ 15.2 µM) | 0.5 µg/mL (≈ 1.52 µM) | –
O=[N+]([O-])c1ccc(-c2ccnc3ccccc23)o1 [H H NF H H H H, 4-[2'-(5'-nitrofuryl)]quinoline] | 1 µg/mL (≈ 4.16 µM) | 5 µg/mL (≈ 20.8 µM) | 0.1 to 0.5 µg/mL (≈ 0.416 to 2.08 µM) | –
Cc1cc(-c2ccc([N+](=O)[O-])o2)nc2ccccc12 [NF H CH3 H H H H, 2-[2'-(5'-nitrofuryl)]-4-methyl quinoline] | 0.5 µg/mL (≈ 1.97 µM) | 5 µg/mL (≈ 19.7 µM) | 0.2 to 0.5 µg/mL (≈ 0.787 to 1.97 µM) | –
O=[N+]([O-])c1ccc(-c2ccc3ccccc3n2)o1 [NF H H H H H H, 2-[2'-(5'-nitrofuryl)]quinoline] | 2 to 5 µg/mL (≈ 8.33 to 20.8 µM) | – | 0.5 µg/mL (≈ 2.08 µM) | 25 µg/mL (≈ 104 µM)
CCc1ccc2c(c1)c(-c1ccc([N+](=O)[O-])o1)cc(CC)[n+]2[O-] [O C2 H5 H NF H C2 H5 H H] | 5 to 10 µg/mL (≈ 16 to 32 µM) | > 10 µg/mL | 0.1 µg/mL (≈ 0.32 µM) | –
CCc1cc(-c2ccc([N+](=O)[O-])o2)c2ccc(C)cc2[n+]1[O-] [O C2 H5 H NF H H CH3 H] | < 5 µg/mL | 25 to 50 µg/mL (≈ 83.8 to 168 µM) | 0.5 µg/mL (≈ 1.68 µM) | –
CCc1cc(-c2ccc([N+](=O)[O-])o2)c2ccccc2[n+]1[O-] [O C2 H5 H NF H H H H] | 3 µg/mL (≈ 10.6 µM) | 25 to 50 µg/mL (≈ 87.9 to 176 µM) | 0.3 µg/mL (≈ 1.06 µM) | –
CCCc1cc(-c2ccc([N+](=O)[O-])o2)c2cc(C)ccc2[n+]1[O-] [O C3 H7 H NF H CH3 H H] | 5 to 25 µg/mL (≈ 16 to 80 µM) | > 50 µg/mL | 1 to 5 µg/mL (≈ 3.2 to 16 µM) | –
CCc1ccc2c(c1)c(-c1ccc([N+](=O)[O-])o1)cc(C)[n+]2[O-] [O CH3 H NF H C2 H5 H H] | 2 to 5 µg/mL (≈ 6.7 to 16.8 µM) | 25 µg/mL (≈ 83.8 µM) | 0.5 µg/mL (≈ 1.68 µM) | –
Cc1ccc2c(c1)c(-c1ccc([N+](=O)[O-])o1)cc(C)[n+]2[O-] [O CH3 H NF H CH3 H H] | 2 to 5 µg/mL (≈ 7.04 to 17.6 µM) | > 25 µg/mL | 0.1 µg/mL (≈ 0.352 µM) | –
Cc1cc(-c2ccc([N+](=O)[O-])o2)c2ccc(Cl)cc2[n+]1[O-] [O CH3 H NF H H Cl H, 2-methyl-4-[2'-(5'-nitrofuryl)]-7-chloro-quinoline N-oxide] | 2 to 5 µg/mL (≈ 6.56 to 16.4 µM) | > 25 µg/mL | 1 µg/mL (≈ 3.28 µM) | –
Cc1cc(-c2ccc([N+](=O)[O-])o2)c2ccccc2[n+]1[O-] [O CH3 H NF H H H H, 2-methyl-4-[2'-(5'-nitrofuryl)] quinoline N-oxide] | 1 µg/mL (≈ 3.7 µM) | 10 µg/mL (≈ 37 µM) | 0.2 to 0.5 µg/mL (≈ 0.74 to 1.85 µM) | –
CCOc1ccc2c(-c3ccc([N+](=O)[O-])o3)cc(C)[n+]([O-])c2c1 [O CH3 H NF H H OC2 H5 H] | 10 µg/mL (≈ 31.8 µM) | 10 to 50 µg/mL (≈ 31.8 to 159 µM) | 0.05 to 0.1 µg/mL (≈ 0.159 to 0.318 µM) | –
COc1ccc2c(-c3ccc([N+](=O)[O-])o3)cc(C)[n+]([O-])c2c1 [O CH3 H NF H H OCH3 H, 2-methyl-4-[2'-(5'-nitrofuryl)]-7-methoxy quinoline N-oxide] | 0.5 µg/mL (≈ 1.67 µM) | 5 µg/mL (≈ 16.7 µM) | 0.1 µg/mL (≈ 0.333 µM) | –
Cc1cc(-c2ccc([N+](=O)[O-])o2)c2cc3ccccc3cc2[n+]1[O-] [O CH3 H NF H drawing 13 H] | 50 µg/mL (≈ 156 µM) | > 50 µg/mL | 0.5 to 1 µg/mL (≈ 1.56 to 3.12 µM) | –
O=C(O)c1cc(-c2ccc([N+](=O)[O-])o2)c2ccccc2[n+]1[O-] [O COOH H NF H H H H] | 10 to 25 µg/mL (≈ 33.3 to 83.3 µM) | 50 µg/mL (≈ 167 µM) | 0.5 µg/mL (≈ 1.67 µM) | –
O=[N+]([O-])c1ccc(-c2cc[n+]([O-])c3ccccc23)o1 [O H H NF H H H H] | 0.5 µg/mL (≈ 1.95 µM) | 5 µg/mL (≈ 19.5 µM) | 0.1 to 0.5 µg/mL (≈ 0.39 to 1.95 µM) | –
COc1ccc2c(-c3ccc([N+](=O)[O-])o3)cc[n+]([O-])c2c1 [O H H NF H H OCH3 H, 4-[2'-(5'-nitrofuryl)]-7-methoxy quinoline N-oxide] | 0.5 µg/mL (≈ 1.75 µM) | 5 µg/mL (≈ 17.5 µM) | 0.01 to 0.05 µg/mL (≈ 0.0349 to 0.175 µM) | –
Cc1cc(-c2ccc([N+](=O)[O-])o2)[n+]([O-])c2ccccc12 [O NF H CH3 H H H H] | 2 to 5 µg/mL (≈ 7.4 to 18.5 µM) | 10 µg/mL (≈ 37 µM) | 1 µg/mL (≈ 3.7 µM) | –
CCCc1cc(-c2ccc([N+](=O)[O-])o2)c2ccc(C)cc2[n+]1[O-] [OC3 H7 H NF H H CH3 H] | > 50 µg/mL | – | 1 µg/mL (≈ 3.2 µM) | > 50 µg/mL
O=C(c1cc(-c2ccc([N+](=O)[O-])o2)c2ccccc2n1)N1CCOCC1 [drawing 11 H NF H H H H] | 50 µg/mL (≈ 142 µM) | 25 to 50 µg/mL (≈ 70.8 to 142 µM) | 0.1 to 0.5 µg/mL (≈ 0.283 to 1.42 µM) | –
O=[N+]([O-])c1ccc(-c2cc(CC(O)C(Cl)(Cl)Cl)nc3ccccc23)o1 (stereo not drawn) [drawing 12 H NF H H H H] | > 50 µg/mL | > 50 µg/mL | 0.5 µg/mL (≈ 1.24 µM) | –
